Test results taken from ChEMBL document CHEMBL1131984, “Synthesis and antitumour activity of novel diterpenequinone salvicine and the analogs” (Bioorg Med Chem Lett, 1999).
“And” between values parts separate entries of the source, which are not always exact repeats. Equal values may be shown once.

What was measured:
HL-60 [1] = experiment: In vitro cytotoxic activity against HL-60 human leukemia cell line by MTT assay (microculture terazolium colorimetric); type: functional, cell-based
P388 = experiment: In vitro cytotoxic activity against P388 mouse leukemia cell line by MTT assay (microculture terazolium colorimetric); type: functional, cell-based
SPC-A4 = experiment: In vitro cytotoxic activity against SPC-A4 lung cancer solid tumor cell line by MTT assay (microculture terazolium colorimetric); type: functional, cell-based; settings: Homo sapiens
SGC-7901 = experiment: In vitro cytotoxic activity against SGC-7901 stomach cancer solid tumor cell line by MTT assay (microculture terazolium colorimetric); type: functional, cell-based; settings: Homo sapiens
HL-60 [2] = experiment: In vitro cytotoxic activity against HL-60 human leukemia cell line was determined by MTT assay (microculture terazolium colorimetric); type: functional, cell-based
Mus musculus [3] = experiment: Ratio of the tumor weight of mice at the initial stage and the final stage of the experiment was reported at a dose of 20 mg/kg (Q2dx10) administered i.p.; type: functional; settings: route intraperitoneal
Mus musculus [4] = experiment: In vivo inhibitory activity against human lung adenocarcinoma xenograft A-549 in mice at a dose of 10 mg/kg (Q2dx9) administered i.p.; type: functional; settings: A549, ip, route intraperitoneal
Mus musculus [5] = experiment: (§1) In vivo inhibitory activity against murine S-180 sarcoma at a dose of 7.5 mg/kg (day 7); type: functional; settings: S-180, 168 h
Mus musculus [6] = experiment: (§2) Ratio of the tumor weight of mice at the initial stage and the final stage of the experiment was reported at a dose of 30 mg/kg (Q2dx10) administered i.p.; type: functional; settings: route intraperitoneal
Mus musculus [7] = experiment: Ratio of the tumor weight of mice at the initial stage and the final stage of the experiment was reported at a dose of 3.75 mg/kg i.p. (day 7); type: functional; settings: route intraperitoneal
Mus musculus [8] = experiment: In vivo inhibitory activity against murine S-180 sarcoma at a dose of 15 mg/kg i.p. (day 6); type: functional; settings: S-180, ip, 144 h, route intraperitoneal
Mus musculus [9] = experiment: (§3) Ratio of the tumor weight of mice at the initial stage and the final stage of the experiment was reported at a dose of 7.5 mg/kg (day 7); type: functional
Mus musculus [10] = experiment: In vivo inhibitory activity against human lung adenocarcinoma xenograft LAX-83 in mice at a dose of 10 mg/kg (Q2dx10) administered i.p.; type: functional; settings: route intraperitoneal; for inhibition in vivo at 10 mg/kg: ip
Mus musculus [11] = experiment: In vivo inhibitory activity against murine Lewis lung cancer at a dose of 37.5 mg/kg i.p. (day10); type: functional; settings: route intraperitoneal
Mus musculus [12] = experiment: (§4) Ratio of the tumor weight of mice at the initial stage and the final stage of the experiment was reported at a dose of 15 mg/kg i.p. (day 9); type: functional; settings: route intraperitoneal
Mus musculus [13] = experiment: (§5) Ratio of the tumor weight of mice at the initial stage and the final stage of the experiment was reported at a dose of 7.5 mg/kg i.p. (day 10); type: functional; settings: route intraperitoneal
Mus musculus [14] = experiment: In vivo inhibitory activity against human lung adenocarcinoma xenograft A-549 in mice at a dose of 20 mg/kg (Q2dx10) administered i.p.; type: functional; settings: route intraperitoneal
Mus musculus [15] = experiment: In vivo inhibitory activity against murine S-180 sarcoma at a dose of 3.75 mg/kg i.p. (day 7); type: functional; settings: S-180, ip, 168 h, route intraperitoneal
Mus musculus [16] = experiment: (§6) Ratio of the tumor weight of mice at the initial stage and the final stage of the experiment was reported at a dose of 15 mg/kg (day 6); type: functional
Mus musculus [17] = experiment: In vivo inhibitory activity against murine S-180 sarcoma at a dose of 3.75 mg/kg (day 7); type: functional; settings: S-180, 168 h
Mus musculus [18] = experiment: as §1; type: functional; settings: S-180, 168 h; remark: listed apart in the source
Mus musculus [19] = experiment: Ratio of the tumor weight of mice at the initial stage and the final stage of the experiment was reported at a dose of 10 mg/kg (Q2dx10) administered i.p.; type: functional; settings: route intraperitoneal
Mus musculus [20] = experiment: In vivo inhibitory activity against human lung adenocarcinoma xenograft LAX-83 in mice at a dose of 20 mg/kg (Q2dx10) administered i.p.; type: functional; settings: route intraperitoneal
Mus musculus [21] = experiment: as §2; type: functional; settings: route intraperitoneal; remark: listed apart in the source
Mus musculus [22] = experiment: In vivo inhibitory activity against murine Lewis lung cancer at a dose of 7.5 mg/kg i.p. (day10); type: functional; settings: ip, 240 h, route intraperitoneal
Mus musculus [23] = experiment: Ratio of the tumor weight of mice at the initial stage and the final stage of the experiment was reported at a dose of 20 mg/kg (Q2dx9) administered i.p.; type: functional; settings: route intraperitoneal
Mus musculus [24] = experiment: In vivo inhibitory activity against human lung adenocarcinoma xenograft A-549 in mice at a dose of 10 mg/kg (Q2dx10) administered i.p.; type: functional; settings: route intraperitoneal
Mus musculus [25] = experiment: In vivo inhibitory activity against murine S-180 sarcoma at a dose of 7.5 mg/kg i.p. (day 7); type: functional; settings: S-180, ip, 168 h, route intraperitoneal
Mus musculus [26] = experiment: In vivo inhibitory activity against human lung adenocarcinoma xenograft LAX-83 in mice at a dose of 30 mg/kg (Q2dx10) administered i.p.; type: functional; settings: route intraperitoneal
Mus musculus [27] = experiment: Ratio of the tumor weight of mice at the initial stage and the final stage of the experiment was reported at a dose of 30 mg/kg (Q2dx9) administered i.p.; type: functional; settings: route intraperitoneal
Mus musculus [28] = experiment: In vivo inhibitory activity against human lung adenocarcinoma xenograft A-549 in mice at a dose of 30 mg/kg (Q2dx9) administered i.p.; type: functional; settings: A549, ip, route intraperitoneal
Mus musculus [29] = experiment: (§7) In vivo inhibitory activity against murine S-180 sarcoma at a dose of 15 mg/kg (day 6); type: functional; settings: S-180, 144 h
Mus musculus [30] = experiment: In vivo inhibitory activity against murine Lewis lung cancer at a dose of 15 mg/kg i.p. (day10); type: functional; settings: route intraperitoneal
Mus musculus [31] = experiment: as §4; type: functional; settings: route intraperitoneal; remark: listed apart in the source
Mus musculus [32] = experiment: In vivo inhibitory activity against human lung adenocarcinoma xenograft A-549 in mice at a dose of 20 mg/kg (Q2dx9) administered i.p.; type: functional; settings: A549, ip, route intraperitoneal
Mus musculus [33] = experiment: Ratio of the tumor weight of mice at the initial stage and the final stage of the experiment was reported at a dose of 3.75 mg/kg (day 7); type: functional
Mus musculus [34] = experiment: as §3; type: functional; remark: listed apart in the source
Mus musculus [35] = experiment: Ratio of the tumor weight of mice at the initial stage and the final stage of the experiment was reported at a dose of 3.75 mg/kg i.p. (day 10); type: functional; settings: route intraperitoneal
Mus musculus [36] = experiment: as §5; type: functional; settings: route intraperitoneal; remark: listed apart in the source
Mus musculus [37] = experiment: as §6; type: functional; remark: listed apart in the source
Mus musculus [38] = experiment: In vivo inhibitory activity against human lung adenocarcinoma xenograft A-549 in mice at a dose of 30 mg/kg (Q2dx10) administered i.p.; type: functional; settings: route intraperitoneal
Mus musculus [39] = experiment: as §7; type: functional; settings: S-180, 144 h; remark: listed apart in the source

Question: With `Cc1ccc2c(c1CCC1OC1(C)C)C(=O)C(=O)C(C(C)C)=C2` (stereo unspecified) as the compound, how does the IC50 (HL-60 [1]) read?
Answer: The IC50 was 4480 nM.

Question: And the IC50 (P388)?
Answer: The IC50 was 3380 nM.

Question: And the IC50 (SPC-A4)?
Answer: Its IC50 is 1880 nM.

Question: And the IC50 (SGC-7901)?
Answer: The IC50 was 71500 nM.

Question: What does the source list for `Cc1ccc2c(c1CCC(Br)C(C)(C)O)C(=O)C(=O)C(C(C)C)=C2` (stereo unspecified)?
Answer: IC50 (HL-60 [1]): 4610 nM; IC50 (P388): 3990 nM; IC50 (SPC-A4): 1450 nM; IC50 (SGC-7901): 6120 nM

Question: Which results are given for `CC(C)=CCCc1c(C)ccc2c1C(=O)C(=O)C(C(C)C)=C2`?
Answer: IC50 (P388): 1950 nM; IC50 (HL-60 [2]): 2360 nM; IC50 (SPC-A4): 2750 nM; IC50 (SGC-7901): 1370 nM

Question: What does the source list for `Cc1ccc2c(c1CCC(=O)C(C)C)C(=O)C(=O)C(C(C)C)=C2`?
Answer: IC50 (HL-60 [1]): 270 nM; IC50 (P388): 830 nM; IC50 (SPC-A4): 3380 nM; IC50 (SGC-7901): 1980 nM

Question: Which IC50 (HL-60 [1]) does the source give for `Cc1ccc2c(c1CCC(=O)O)C(=O)C(=O)C(C(C)C)=C2` here?
Answer: Its IC50 is 2840 nM.

Question: And the IC50 (P388)?
Answer: The IC50 was 1460 nM.

Question: What about the IC50 (SPC-A4) of the same compound?
Answer: The IC50 was 2620 nM.

Question: And the IC50 (SGC-7901)?
Answer: The IC50 was 66900 nM.

Question: Which results are given for `Cc1ccc2c(c1CCC(O)C(C)(C)O)C(=O)C(=O)C(C(C)C)=C2` (stereo unspecified)?
Answer: Tumor weight (Mus musculus [3]): 1.25 g [middle of 5 runs]; inhibition in vivo at 10 mg/kg (Mus musculus [4]): 25.5%; inhibition in vivo at 7.5 mg/kg (Mus musculus [5]): 32.2%; IC50 (HL-60 [1]): 3570 nM; Tumor weight (Mus musculus [6]): 0.93 g and 0.44 g; Tumor weight (Mus musculus [7]): 1.52 g; inhibition in vivo at 15 mg/kg (Mus musculus [8]): 61.3%; Tumor weight (Mus musculus [9]): 1.07 g and 1.4 g; inhibition in vivo at 10 mg/kg (Mus musculus [10]; Mus musculus): 41%; inhibition in vivo at 10 mg/kg (Mus musculus [10]): 28%; Inhibition (Mus musculus [10]; 10 mg/kg): 31.23%; inhibition in vivo at 37.5 mg/kg (Mus musculus [11]; Mus musculus, Lung, ip, 240 h): 12.9%; Inhibition (Mus musculus [11]; 37.5 mg/kg): 7.5%; IC50 (P388): 3490 nM; Tumor weight (Mus musculus [12]): 0.75 g; Tumor weight (Mus musculus [13]): 0.97 g; Inhibition (Mus musculus [14]): 60.55% and 27.76%; inhibition in vivo at 3.75 mg/kg (Mus musculus [15]): 37.2%; Tumor weight (Mus musculus [16]): 0.93 g; inhibition in vivo at 3.75 mg/kg (Mus musculus [17]): 8.4%; inhibition in vivo at 7.5 mg/kg (Mus musculus [18]): 35.5%; Tumor weight (Mus musculus [19]): 1.13 g [middle of 5 runs]; IC50 (SPC-A4): 2460 nM; Inhibition (Mus musculus [20]): 26.73% and 17.53% and 9.39%; Tumor weight (Mus musculus [21]): 0.72 g and 0.53 g and 1.02 g; inhibition in vivo at 7.5 mg/kg (Mus musculus [22]): 34%; Tumor weight (Mus musculus [23]): 1.59 g; inhibition in vivo at 10 mg/kg (Mus musculus [24]; Mus musculus, A549, ip): 48.2%; Inhibition (Mus musculus [24]; 10 mg/kg): 30.15%; inhibition in vivo at 7.5 mg/kg (Mus musculus [25]): 48.9%; Inhibition (Mus musculus [26]): 40.31% and 51.42% and 61.59%; IC50 (SGC-7901): 1840 nM; Tumor weight (Mus musculus [27]): 1.67 g; inhibition in vivo at 30 mg/kg (Mus musculus [28]): 51.2%; inhibition in vivo at 15 mg/kg (Mus musculus [29]): 44%; inhibition in vivo at 15 mg/kg (Mus musculus [30]; Mus musculus, Lung, ip, 240 h): 49%; Inhibition (Mus musculus [30]; 15 mg/kg): 54.5%; Tumor weight (Mus musculus [31]): 0.91 g; inhibition in vivo at 20 mg/kg (Mus musculus [32]): 53.6%; Tumor weight (Mus musculus [33]): 1.99 g and 1.72 g; Tumor weight (Mus musculus [34]): 1.22 g; Tumor weight (Mus musculus [35]): 1.28 g and 1.85 g; Tumor weight (Mus musculus [36]): 1.32 g; Tumor weight (Mus musculus [37]): 0.92 g and 1.06 g; Inhibition (Mus musculus [38]): 55.6% and 80.14%; inhibition in vivo at 15 mg/kg (Mus musculus [39]): 48.9%
